Paper PMC7912796, “Design, Synthesis, Anticancer Activity, and Solid Lipid Nanoparticle Formulation of Indole- and Benzimidazole-Based Compounds as Pro-Apoptotic Agents Targeting Bcl-2 Protein” (Pharmaceuticals, 2021)

How the values were obtained:
Bcl-2 gene = experiment: RT-PCR apoptotic gene expression; format: cell-based, human; settings: 13 μM, 48 h, MDA-MB-231, vs negative control
Protocol: (§1) Dissection of the compound’s proapoptotic activity was proceeded through gene expression analysis for key genes, controlling apoptosis pathway, as well as protein level determination. Following 8b treatment for 48 h, alterations within MDA-MB-231/breast cancer cell expression of Bcl-2, Bax, caspase-3, -8, and -9 genes, as well as cytochrome c and class-III β-tubulin proteins levels were determined using real-time polymerase chain reaction (RT-PCR) or ELISA technique, respectively. Typically, Bcl-2, Bax, caspases, and cytochrome c proteins contributes within the regulation of apoptotic signaling. Acting as apoptotic activator (Bax) or inhibitor (Bcl-2), the Bcl-2 family proteins play their significant role in apoptosis. The caspases family are cysteine proteases being classified as either executioners; caspase-3, -6, or -7 or initiators; caspase-8 and -9 [36]. Regrading caspase-8, its activation is proceeded through extrinsic death-receptor dependent apoptotic pathway, while, caspase-9 activation is within the event of intrinsic mitochondrial cytochrome c leakage. Additionally, participation of activated caspase-3 is to be essential for […] activation. Class-III β-tubulin are pure prognostic biomarker within cancer patients being associated with aggressive phenotypic/drug-resistant cancers and part of complicated pro-survival molecular pathway, being triggered via poor nutrient supply and hypoxia.
(§2) Quantitative Real-time PCR was operated on Rotor-Gene Q® PCR system as a reader (Cat.#: 204774; Qiagen^TM, Milan, Italy) via GenElute® RNA extraction/SIGMA PCR kit (Cat.#: REI10; Qiagen^TM, Milan, Italy)^86. Cells were treated with IC50 of 8b for 48 h and total RNA was extracted from the non-treated and treated cells. RNA purity was assessed via Nanodrop® 2000/2000c UV-Vis spectrophotometer (Thermo-Scientific^TM, Bilbao, Spain). Synthesis of cDNA was proceeded using QuantiNova® Reverse Transcription Kit (Cat.#: RTN30; Qiagen^TM, Milan, Italy) and the subsequent PCR tests were conducted via single tubes. Specific forward/reverse primer pairs were selected for investigated (Casp-3, -8, -9, BAX, and Bcl2). Obtained results were expressed within Cycle threshold (Ct) values, while relative quantitation of each measured gene was assessed based on ΔΔCt calculations as represented in Table 5 [79].

Caspase-9 gene = experiment: RT-PCR apoptotic gene expression; format: cell-based, human; settings: 13 μM, 48 h, MDA-MB-231, vs negative control
Protocol: as §1, §2

Caspase-3 gene = experiment: RT-PCR apoptotic gene expression; format: cell-based, human; settings: 13 μM, 48 h, MDA-MB-231, vs negative control
Protocol: as §1, §2

BAX gene = experiment: RT-PCR apoptotic gene expression; format: cell-based, human; settings: 13 μM, 48 h, MDA-MB-231, vs negative control
Protocol: as §1, §2

Caspase-8 gene = experiment: RT-PCR apoptotic gene expression; format: cell-based, human; settings: 13 μM, 48 h, MDA-MB-231, vs negative control
Protocol: as §1, §2

[1] = In-vitro drug release, dialysis method; format: physicochemical; settings: over 48 h, PBS pH 7.4, 37 °C, dialysis bag
Protocol: The in-vitro drug-release behavior of SLNs was determined through the dialysis method. The release of drug from SLNs was done using phosphate buffer saline (pH 7.4) as dissolution medium. An accurate amount of SLNs (equivalent to 5 mg drug) was taken and placed within the dialysis bag (MWCO: 12 kDa). The dialysis bag was closed from both ends and placed within 75 mL Phosphate Buffer Saline (pH 7.4) as dissolution medium. The analysis was conducted while maintaining the dissolution medium at 37 ± 1 °C and being stirred via magnetic stirrer at 100 rpm. Dissolution medium samples (2 mL) were withdrawn at pre-determined time intervals (0.5, 1, 2, 4, 8, 12, 24 and 48 h). Equal volumes of fresh dissolution medium were added to replace the withdrawn volumes for keeping sink condition. The experiment was done in triplicate and the amount of drug release was measured following the same procedure as in the entrapment efficiency section.

Q: For `CCCc1ccc(-c2nn(-c3ccccc3)cc2C=NNC(=O)c2cc3ccccc3[nH]2)cc1` [Compound 8b, N′-((1-phenyl-3-(4-propylphenyl)-1H-pyrazol-4-yl)methylene)-1H-indole-2-carbohydrazide], which Bcl-2 gene expression (Bcl-2 gene) is on record?
A: Its Bcl-2 gene expression is 0.165 folds.

Q: And the Caspase-9 gene expression (Caspase-9 gene)?
A: Its Caspase-9 gene expression is 7.65 folds.

Q: And the Caspase-3 gene expression (Caspase-3 gene)?
A: Its Caspase-3 gene expression is 4.28 folds.

Q: What about the BAX gene expression (BAX gene) of the same molecule?
A: The BAX gene expression was 3.61 folds.

Q: What about the Caspase-8 gene expression (Caspase-8 gene) of the same molecule?
A: The Caspase-8 gene expression was 1.53 folds.

Q: And the “total released amount of drug” value [1]?
A: The value was 21.48 ± 1.17%.
